Here are results for 64 molecules from a melting point compilation (Tetko et al.; mined from patent text by program, amines drawn as free bases though some values may be those of a salt).

With `Cn1cnnc1C(N)(c1ccc(I)cc1)c1ccc2c(c1)c(-c1cccc(Cl)c1)nc1nnnn12` (centres undefined), the melting point worked out at 238 °C.

In the case of `CCCCCCCCCCCC(=O)NCCOCCn1c(CCOC)nc2c(N)nc3ccccc3c21`, the melting point was in the range of 80 to 83 °C.

`CN1CCN(c2cc(Br)cc3c2c(=O)n(Cc2ccccc2)c(=O)n3Cc2ccccc2)CC1` showed a melting point of 80 to 84 °C.

`NCC1CCN(c2ncc3ncnc(Nc4ccc(F)c(Cl)c4)c3n2)CC1` returned a melting point of 165 °C.

`CCOC(=O)c1cn2c3c(c(-c4cc(C)nc(C)c4)c(F)cc3c1=O)OC[C@@H]2C` came in with a melting point of 267 to 273 °C.

Molecule `CC(=O)CC(=O)Nc1ccc(C)cc1C` yielded a melting point of 89 °C.

`CCOC(=O)COc1c(-c2ccccc2)cc(O)cc1-c1ccccc1` displayed a melting point of 91 to 93 °C.

The molecule `CCc1ccc2nc(OC)nc(N)c2c1` came in with a melting point of 168 to 170 °C.

For `COC(=O)Cc1ccc(CN2CCN(C(c3ccccc3)c3ccccc3)CC2)cc1`, the melting point fell in the range of 124 to 125 °C.

For the molecule `CCOC(Cc1ccc(OCC=C2c3ccccc3CCc3ccccc32)cc1)C(=O)O` (centres undefined), the melting point was 147 to 150 °C.

Take `O=CC(Br)c1ccc(Cl)cc1` (centres undefined): the melting point turned out to be 178 °C.

`CCOC(=O)CCCCCOc1cc2ccc(-c3ccc(C(=O)O)cc3)cc2cc1C12CC3CC(CC(C3)C1)C2` came in with a melting point of 270 to 271 °C.

Take `COC(=O)N(C)NC(=O)Oc1ccccc1`: the melting point worked out at 86 °C.

For the molecule `O=S(=O)(Cc1ccccc1)N(c1ncc(-c2ccccc2)nc1Cc1ccccc1)S(=O)(=O)Cc1ccccc1`, the melting point lay in the range of 71.5 to 74.5 °C.

Take `COc1ccc(CCC(=O)Nc2ccccc2C(=O)O)cc1OC`: the melting point was found to be 137 °C.

Molecule `Oc1cccc(-c2cn3ccc4ccccc4c3n2)c1` registered a melting point of 201 to 202 °C.

As to `CCN(CC)Cc1cc(NC(C)=O)c2c(c1O)CCCC2`, the melting point lay within 157 to 159 °C.

Molecule `CN(C)CCC(=O)Nc1ccc2[nH]c3ccc(NC(=O)CCN(C)C)cc3c(=O)c2c1` came in with a melting point of more than 320 °C.

Molecule `CCNc1cccnc1N1CCN(C(=O)c2ccc(C(=O)N3CCN(CCO)CC3)cc2)CC1` gave a melting point of 152 to 153 °C.

The molecule `O=C(Cc1ccc(C(F)(F)F)cc1)c1ccccc1` displayed a melting point of 143 to 144 °C.

In the case of `CC(=O)c1nc2cc(Cl)c(OCC(F)(F)F)cc2cc1O`, the melting point was 104 to 105 °C.

`CC(C)N(C(=O)n1nc(Oc2ccc(C(F)(F)F)cc2[N+](=O)[O-])cc1C(F)(F)F)C(C)C` gave a melting point of 118 to 120 °C.

`CCCCCCCCCCCCCCCCCCNC(=O)c1cc(O)cc(O)c1` had a melting point of 114 to 117 °C.

`O=C1NC(=O)C(c2ccccc2)(c2ccc(Br)cc2)N1` (centres undefined) gave a melting point of 237 to 239 °C.

`CC(C)(C)NS(=O)(=O)c1cc([N+](=O)[O-])ccc1Cl` displayed a melting point of 168 to 171 °C.

In turn, `CCCN(CCC)C1Cc2c[nH]c3ccc(C(=O)CC)c(c23)C1` (centres undefined) gave a melting point of 149 to 150 °C.

`Cc1nnc(COc2cccc(NC(=O)N(C)C)c2)o1` registered a melting point of 102 to 105 °C.

`COc1ccc2[nH]c(C)c(C3CN4CCC3CC4)c2c1` (centres undefined) yielded a melting point of 232 to 234 °C.

The molecule `CC(=Cc1ccccc1)c1ccc2c(c1)C(C)(C)CCS2(=O)=O` registered a melting point of 156 to 158 °C.

Turning to `O=c1[nH]c(=O)n([C@@H]2CO[C@H](CO)[C@@H](O)C2)cc1I`, the melting point is 219 to 220 °C.

`COc1ccc(C(=O)COc2ccc(C(=O)OCc3ccccc3)c(O)c2)cc1C(C)(C)C` returned a melting point of 98 to 99 °C.

For the molecule `CN(C)CCCC(c1ccncc1)S(=O)(=O)c1ccc(Cl)cc1` (centres undefined), the melting point lay within 78 to 80 °C.

Regarding `O=C1CC(C2CCCC2)CN1` (centres undefined), the melting point was 117 to 119 °C.

`COc1ccc(CNc2nc(SC)ncc2C(=O)Nc2cncnc2)cc1Cl`: the melting point was 238 to 240 °C.

As to `OCCOc1cccc(-n2ccnc2)c1`, the melting point was in the range of 81 to 83 °C.

Turning to `NCC(=O)N1CCC(C2c3ncc(Br)cc3CCc3cc(Cl)cc(Cl)c32)CC1` (single isomer, unassigned; (+)), the melting point lay within 81 to 122 °C.

As to `CC1(C)COC(c2ccccc2-c2ccc(CCl)cc2)=N1`, the melting point fell in the range of 72 to 75 °C.

In the case of `Cc1nn(-c2ccc(C(F)(F)F)cn2)cc1CCCOc1cccc(CC(=O)O)c1`, the melting point is 96 to 97 °C.

In turn, `CCOC(=O)C1CCCN(CCC2CCc3cc(OCc4ccc(-c5ccccc5)cc4)ccc3C2)C1` (centres undefined) yielded a melting point of 97 to 98 °C.

The molecule `CCOc1ncc(C(=O)O)c2c(N)cccc12` returned a melting point of 159 to 165 °C.

For the molecule `Cn1c(N2CCOCC2)nc(C(=O)NCc2ccc(Cl)c(Cl)c2)c(O)c1=O`, the melting point lay in the range of 100 to 102 °C.

`O=S(=O)(Cc1ccccc1)N1CCC(c2ccc(O)cc2O)CC1` displayed a melting point of 207 to 208 °C.

With `CCOC(=O)c1cn(-c2ccc(F)cn2)c2c(F)c(F)c(F)cc2c1=O`, the melting point fell in the range of 203 to 205 °C.

As for `CCOC(=O)Cn1c(=O)sc2ccc(C3=NNC(=O)NC3C)cc21` (centres undefined), the melting point was 200 to 202 °C.

For the molecule `Cc1cc(-c2nc3cc(OCCOC(C)C)cc(OCCOC(C)C)c3c(=O)[nH]2)cc(C)n1`, the melting point lay within 124 to 125 °C.

Molecule `CCCCCCC(C)Oc1cc(O)c2c(C)c(CCC(=O)OCC)c(=O)oc2c1` (centres undefined) had a melting point of 116 to 117 °C.

In turn, `C#CCN1C(=O)C(C)(C)NC(C)(C)C1=O` yielded a melting point of 77 to 80 °C.

`O=C(NCCCc1ccncc1)N(CCC12CC3CC(CC(C3)C1)C2)C1CCCC1` gave a melting point of 136 to 138 °C.

In turn, `O=C(O)c1cc(CC(C(=O)O)C(=O)O)c2ccccn2c1=O` showed a melting point of more than 250 °C.

Molecule `COCCNC(=O)c1ccc(Br)c(C)c1` displayed a melting point of 79 to 81 °C.

Consider `O=C1Nc2cc3c(cc2SC1CCCN1CCN(c2ccc(F)cc2)CC1)OCO3` (centres undefined), for which the melting point fell in the range of 175 to 177 °C.

Molecule `CC(C)Oc1ccc(-n2c(CC(=O)O)c(C(=O)O)c3cc(Oc4cccc(C(F)(F)F)c4)ccc32)cc1` came in with a melting point of 203 °C.

For `COc1nnc(N)c(=O)n1C`, the melting point lay within 198 to 199 °C.

Molecule `OC(Cn1cncn1)(c1ccc(Cl)cc1)C(F)(F)F` (centres undefined) returned a melting point of 117 to 118 °C.

`O=C(Nc1nc2ccc(OCc3c(Cl)cccc3Cl)cc2[nH]1)C1CC1` yielded a melting point of 133 to 135 °C.

As to `CC(=O)CS(=O)(=O)N(C)C`, the melting point lay within 47 to 49 °C.

On to `O=C(O)C1Sc2ccccc2-c2ccccc21` (centres undefined), for which the melting point lay within 156 to 159 °C.

Turning to `N#Cc1cc(F)c(-n2cnc(C(F)(F)F)cc2=O)cc1F`, the melting point worked out at 95 °C.

Turning to `FC(F)(F)/C(=C(\c1ccccc1)c1ccc(OCc2ccccc2)cc1)c1ccccc1`, the melting point lay in the range of 128 to 129 °C.

For the molecule `CC/C(=C\CCC(O)(CC)CC)c1ccc(CCc2ccc(CO)c(CO)c2)s1`, the melting point was 77 °C.

Consider `O=C(NN=Cc1ccnc2ccccc12)c1ccc(C(F)(F)F)cc1`, for which the melting point was 240 °C.

The molecule `CCCCC(CC)COc1cccc(N2C(C)=CC(=C=C3C(C#N)C(=C(C#N)C#N)OC3(C)C)C=C2C)c1` (centres undefined) had a melting point of 181 °C.

The molecule `Cc1nc(Cl)c2c(C)c(C)n(-c3c(Br)cc(C(F)(F)F)cc3Br)c2n1` gave a melting point of 202 to 204 °C.

In turn, `C=C1N(C(C)C)C(=O)OC12CCN(C(=O)NC(=O)c1cccnc1Cl)CC2` showed a melting point of 186 to 188 °C.

What is called melting point is the temperature of the solid-liquid transition.
